In US20260022143A1, “Cyclic Peptide Inhibitors of IL-23” (JANSSEN PHARMACEUTICA NV, priority 2022, published 2026) one finds IC50 and EPSA data, which are given here for nine compounds.

Starred links: 1 amine or outer side, 2 acyl side, 3 side chain; linkers in the order of their positions; H or OH if unused. Positions of bridges follow the written chain, without caps; N, C: chain ends. Non-standard residues stand in square brackets, D forms with d. Residues, ends and D or L forms follow the SMILES beside them. Groups on a side chain read outwards from the residue. *: point of attachment. Trp(7-(3-AcNH-Ph)) = CC(=O)Nc1cccc(-c2cccc3c(C[C@H](N)C(=O)O)c[nH]c23)c1; Me3N+(CH2)2O(CH2)2O(CH2)2CO = C[N+](C)(C)CCOCCOCCC(=O)*; CH2CH2OCH2CH2OCH2CH2NMe3+ = C[N+](C)(C)CCOCCOCC*; Trp(7-Me) = Cc1cccc2c(C[C@H](N)C(=O)O)c[nH]c12; dLys(Me3) = C[N+](C)(C)CCCC[C@@H](N)C(=O)O; γGlu = O=C(O)[C@H](CCC(=O)[*:2])N[*:1]; 2Nal = N[C@@H](Cc1ccc2ccccc2c1)C(=O)O; AEF = NCCOc1ccc(C[C@H](N)C(=O)O)cc1; dNMeY = CN[C@H](Cc1ccc(O)cc1)C(=O)O; 3Pal = N[C@@H](Cc1cccnc1)C(=O)O; Cit = NC(=O)NCCC[C@H](N)C(=O)O; Lys(Me) = CNCCCC[C@H](N)C(=O)O; αMeL = CC(C)C[C@](C)(N)C(=O)O; NMeK = CN[C@@H](CCCCN)C(=O)O; Pen = CC(C)(S)[C@H](N)C(=O)O; Lauroyl = CCCCCCCCCCCC(=O)*; Thp = NC1(C(=O)O)CCOCC1; X17 = C[N+]1(CC*)CCOCC1; X3 = C[N+](C)(C)CCCCC*; AEEA = NCCOCCOCC(=O)O; Me2NCH2CH2 = CN(C)CC*; Sar = CNCC(=O)O

For data set [1], the target named is T1, IL-23R (Homo sapiens, UniProt Q5VWK5).
T1 construct: host or cells: HEK293
T1 sequence (Q5VWK5 24-629): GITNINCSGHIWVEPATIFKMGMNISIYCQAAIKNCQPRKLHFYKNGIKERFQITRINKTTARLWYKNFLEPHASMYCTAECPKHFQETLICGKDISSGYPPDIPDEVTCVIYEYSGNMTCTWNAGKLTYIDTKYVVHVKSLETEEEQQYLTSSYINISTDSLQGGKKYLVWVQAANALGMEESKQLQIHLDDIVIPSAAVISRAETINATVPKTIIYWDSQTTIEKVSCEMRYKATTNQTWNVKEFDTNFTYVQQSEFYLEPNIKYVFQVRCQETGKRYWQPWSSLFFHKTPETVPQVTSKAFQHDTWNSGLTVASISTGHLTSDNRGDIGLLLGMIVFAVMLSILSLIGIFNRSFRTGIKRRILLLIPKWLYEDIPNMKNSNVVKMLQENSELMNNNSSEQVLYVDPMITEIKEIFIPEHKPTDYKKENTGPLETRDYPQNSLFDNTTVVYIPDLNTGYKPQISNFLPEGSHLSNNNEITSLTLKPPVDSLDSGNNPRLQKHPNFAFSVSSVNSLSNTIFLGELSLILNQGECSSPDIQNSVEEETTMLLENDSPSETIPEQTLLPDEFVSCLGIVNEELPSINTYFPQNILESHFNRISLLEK
Nature of the data set: IL23R Reporter Assay. The class given is cell-based. Conditions: HEK293 cells containing IL-23R, IL-12RP1 and STAT-inducible firefly luciferase reporter; 10 ng/mL IL-23 (EC90); 5 h at 37° C.; read-out: IL23R Reporter Assay.

Data set [2] can be described thus: Exposed Polar Surface Area (EPSA). As to conditions: SFC on Chirex 3014 column; sample 1 mM DMSO stock; read-out: EPSA. The data set is classed as physicochemical. In outline: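 Compounds, as 1 mM DMSO stock, were injected in duplicate onto an SFC Chirex 3014 column at 35 °C and eluted with a CO2/methanol (20 mM ammonium formate) gradient. EPSA values in Å^2 were derived from retention times using a linear fit to eight calibration standards, reinjected every 20 compounds.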

Turning to `CCCCCCCCCCCC(=O)N[C@@H](CCC(=O)NCCOCCOCC(=O)NCCOCCOCC(=O)NCCCC[C@@H]1NC(=O)[C@@H](NC(=O)CCOCCOCC[N+](C)(C)C)C(C)(C)SSC(C)(C)[C@@H](C(=O)N[C@@H](Cc2ccc(OCCCCC[N+](C)(C)C)cc2)C(=O)N[C@@H](Cc2ccc3ccccc3c2)C(=O)NC2(C(=O)N[C@@H](CCCCN(C)C(C)=O)C(=O)N[C@@H](CC(N)=O)C(=O)N[C@@H](Cc3cccnc3)C(=O)N(C)[C@@H](CCCCNC(=O)COCCOCCNC(=O)COCCOCCNC(=O)CC[C@H](NC(=O)CCCCCCCCCCC)C(=O)O)C(N)=O)CCOCC2)NC(=O)[C@H](CCCCNC(C)=O)NC(=O)[C@H](Cc2c[nH]c3c(C)cccc23)NC(=O)[C@H]([C@@H](C)O)NC1=O)C(=O)O` [compound 356, cPEG3aCO-Pen(3)-K(PEG2PEG2gEC12)-T-7MeW-K(Ac)-Pen(3)-TMAPF-2Nal-THP-K(NMeac)-N-3Pya-NMeK(PEG2PEG2gEC12)-CONH2] ({Me3N+(CH2)2O(CH2)2O(CH2)2CO}-[Pen]K([AEEA-AEEA-γGlu-Lauroyl])T[Trp(7-Me)]K(Ac)[Pen]Y(X3)[2Nal][Thp][Lys(Me)](Ac)N[3Pal][NMeK]([AEEA-AEEA-γGlu-Lauroyl])-NH2; disulfide 1-6), the IC50 in data set [1] was 280 nM. For the same compound, the EPSA in data set [2] was 174 A^2.
On the same counts, the results for `CC(=O)N[C@H](CCCNC(=N)N)C(=O)N[C@@H]1C(=O)N[C@@H](CC(N)=O)C(=O)N[C@@H]([C@@H](C)O)C(=O)N[C@@H](Cc2c[nH]c3c(C)cccc23)C(=O)N[C@@H](CCCNC(N)=O)C(=O)N[C@H](C(=O)N[C@@H](Cc2ccc(OCCN)cc2)C(=O)N[C@@H](Cc2ccc3ccccc3c2)C(=O)N[C@@](C)(CC(C)C)C(=O)N[C@@H](CCC(=O)O)C(=O)N[C@@H](CC(N)=O)C(=O)N[C@H](CCCCN)C(=O)N(C)[C@H](Cc2ccc(O)cc2)C(N)=O)C(C)(C)SSC1(C)C` [compound 16, MeCO-r-Pen(3)-N-T-7MeW-Cit-Pen(3)-AEF-2Nal-aMeL-E-N-k-NMeDTyr-CONH2] (Ac-[dR][Pen]NT[Trp(7-Me)][Cit][Pen][AEF][2Nal][αMeL]EN[dK][dNMeY]-NH2; disulfide 2-7) are 24 nM and 180 A^2.
On the same counts, the results for `CC(=O)N(C)CCCC[C@@H]1NC(=O)[C@H](CC(C)C)NC(=O)[C@H]([C@@H](C)O)NC(=O)[C@H](CC(=O)N(C)C)NC(=O)[C@@H](NC(=O)CCOCCOCC[N+](C)(C)C)C(C)(C)SSC(C)(C)[C@@H](C(=O)N[C@@H](Cc2ccc(OCCOCCOCC[N+](C)(C)C)cc2)C(=O)N[C@@H](CC(C)C)C(=O)NC2(C(=O)N[C@@H](CCCCN(C)C(C)=O)C(=O)N[C@@H](CC(N)=O)C(=O)N[C@@H](Cc3cccnc3)C(=O)N(C)CC(=O)N(C)C)CCOCC2)NC1=O` [compound 566, cPEG3aCO-Pen(3)-N(N(Me)2)-T-L-K(NMeAc)-Pen(3)-APEG3F-L-THP-K(NMeAc)-N-3Pya-Sar-CON(Me)2] ({Me3N+(CH2)2O(CH2)2O(CH2)2CO}-[Pen]D(NMe2)TL[Lys(Me)](Ac)[Pen]Y(CH2CH2OCH2CH2OCH2CH2NMe3+)L[Thp][Lys(Me)](Ac)N[3Pal][Sar]-NMe2; disulfide 1-6) are > 3320 nM and 137 A^2.
Take `CC(=O)NCCCC[C@@H]1NC(=O)[C@H](Cc2c[nH]c3c(-c4cccc(NC(C)=O)c4)cccc23)NC(=O)[C@H]([C@@H](C)O)NC(=O)[C@H](CC(N)=O)NC(=O)[C@@H](NC(=O)[C@@H](CCCC[N+](C)(C)C)NC(C)=O)C(C)(C)SSC(C)(C)[C@@H](C(=O)N[C@@H](Cc2ccc(OCCN)cc2)C(=O)N[C@@H](Cc2ccc3ccccc3c2)C(=O)NC2(C(=O)N[C@@H](CCC(=O)O)C(=O)N[C@@H](CC(N)=O)C(=O)N[C@@H](Cc3cccnc3)C(=O)N(C)CC(N)=O)CCOCC2)NC1=O` [compound 461] (Ac-[dLys(Me3)][Pen]NT[Trp(7-(3-AcNH-Ph))]K(Ac)[Pen][AEF][2Nal][Thp]EN[3Pal][Sar]-NH2; disulfide 2-7 (inferred)): the IC50 in data set [1] was determined as 1.4 nM. Also, the EPSA in data set [2] amounted to 192 A^2.
In the same order, the values of `CC(=O)N(C)CCCC[C@@H]1NC(=O)[C@H](Cc2c[nH]c3c(C)cccc23)NC(=O)[C@H]([C@@H](C)O)NC(=O)[C@H](CC(=O)N(C)C)NC(=O)[C@@H](NC(=O)CCOCCOCC[N+](C)(C)C)C(C)(C)SSC(C)(C)[C@@H](C(=O)N[C@@H](Cc2ccc(OCCOCCOCC[N+](C)(C)C)cc2)C(=O)N[C@@H](Cc2ccc3ccccc3c2)C(=O)NC2(C(=O)N[C@@H](Cc3ccccc3)C(=O)N[C@@H](CC(N)=O)C(=O)N[C@@H](Cc3cccnc3)C(=O)N(C)CC(=O)N(C)C)CCOCC2)NC1=O` [compound 469, cPEG3aCO-Pen(3)-N(N(Me)2)-T-7MeW-K(NMeAc)-Pen(3)-APEG3F-2Nal-THP-F-N-3Pya-Sar-CON(Me)2] ({Me3N+(CH2)2O(CH2)2O(CH2)2CO}-[Pen]D(NMe2)T[Trp(7-Me)][Lys(Me)](Ac)[Pen]Y(CH2CH2OCH2CH2OCH2CH2NMe3+)[2Nal][Thp]FN[3Pal][Sar]-NMe2; disulfide 1-6) are 2.1 nM and 156 A^2.
On the same counts, the results for `CC(=O)N[C@@H]1C(=O)N[C@@H](CC(=O)N(C)C)C(=O)N[C@@H]([C@@H](C)O)C(=O)N[C@@H](Cc2c[nH]c3c(C)cccc23)C(=O)N[C@@H](CCC(=O)N(C)C)C(=O)N[C@H](C(=O)N[C@@H](Cc2ccc(OCCN(C)C)cc2)C(=O)N[C@@H](Cc2ccc3ccccc3c2)C(=O)NC2(C(=O)N[C@@H](CCC(=O)N(C)C)C(=O)N[C@@H](CC(N)=O)C(=O)N[C@@H](Cc3cccnc3)C(=O)N(C)CC(=O)N(C)C)CCOCC2)C(C)(C)SSC1(C)C` [compound 118, MeCO-Pen(3)-N(N(Me)2)-T-7MeW-Q(N(Me)2)-Pen(3)-AEF(N(Me)2)-2Nal-THP-Q(N(Me)2)-N-3Pya-Sar-CON(Me)2] (Ac-[Pen]D(NMe2)T[Trp(7-Me)]E(NMe2)[Pen]Y(Me2NCH2CH2)[2Nal][Thp]E(NMe2)N[3Pal][Sar]-NMe2; disulfide 1-6 (inferred)) are 2.1 nM and 138 A^2.
In the same order, the values of `CC(=O)Nc1cccc(-c2cccc3c(C[C@@H]4NC(=O)[C@H]([C@@H](C)O)NC(=O)[C@H](CC(=O)N(C)C)NC(=O)[C@@H](NC(=O)CCOCCOCC[N+](C)(C)C)C(C)(C)SSC(C)(C)[C@@H](C(=O)N[C@@H](Cc5ccc(OCC[N+]6(C)CCOCC6)cc5)C(=O)N[C@@H](Cc5ccc6ccccc6c5)C(=O)NC5(C(=O)N[C@@H](CCCCN(C)C(C)=O)C(=O)N[C@@H](CC(N)=O)C(=O)N[C@@H](Cc6cccnc6)C(=O)N(C)CC(=O)N(C)C)CCOCC5)NC(=O)[C@H](CCCCN(C)C(C)=O)NC4=O)c[nH]c23)c1` [compound 421, cPEG3aCO-Pen(3)-N(N(me)2)-T-7(3NAcPh)W-K(NMeac)-Pen(3)-MMoEF-2Nal-THP-K(NMeAc)-N-3Pya-Sar-CON(Me)2] ({Me3N+(CH2)2O(CH2)2O(CH2)2CO}-[Pen]D(NMe2)T[Trp(7-(3-AcNH-Ph))][Lys(Me)](Ac)[Pen]Y(X17)[2Nal][Thp][Lys(Me)](Ac)N[3Pal][Sar]-NMe2; disulfide 1-6 (inferred)) are 1.2 nM and 168 A^2.
For the compound `CC(=O)N(C)CCCC[C@@H]1NC(=O)[C@H](Cc2ccccc2)NC(=O)[C@H]([C@@H](C)O)NC(=O)[C@H](CC(=O)N(C)C)NC(=O)[C@@H](NC(=O)CCOCCOCC[N+](C)(C)C)C(C)(C)SSC(C)(C)[C@@H](C(=O)N[C@@H](Cc2ccc(OCCCCC[N+](C)(C)C)cc2)C(=O)N[C@@H](Cc2ccc3ccccc3c2)C(=O)NC2(C(=O)N[C@@H](CCCCN(C)C(C)=O)C(=O)N[C@@H](CC(N)=O)C(=O)N[C@@H](Cc3cccnc3)C(=O)N(C)CC(=O)N(C)C)CCOCC2)NC1=O` [compound 510, cPEG3aCO-Pen(3)-N(N(Me)2)-T-F-K(NMeAc)-Pen(3)-TMAPF-2Nal-THP-K(NMeAc)-N-3Pya-Sar-CONMe2] ({Me3N+(CH2)2O(CH2)2O(CH2)2CO}-[Pen]D(NMe2)TF[Lys(Me)](Ac)[Pen]Y(X3)[2Nal][Thp][Lys(Me)](Ac)N[3Pal][Sar]-NMe2; disulfide 1-6), the IC50 in data set [1] was > 1220 nM. Besides, in data set [2], the EPSA came to 201 A^2.
In the same order, the values of `CC(=O)N(C)CCCC[C@@H]1NC(=O)[C@H](Cc2c[nH]c3c(C)cccc23)NC(=O)[C@H]([C@@H](C)O)NC(=O)[C@H](CC(=O)N(C)C)NC(=O)[C@@H](NC(=O)CCOCCOCC[N+](C)(C)C)C(C)(C)SSC(C)(C)[C@@H](C(=O)NC(Cc2ccc(OCCN(CCOCC[N+](C)(C)C)CCOCC[N+](C)(C)C)cc2)C(=O)N[C@@H](Cc2ccc3ccccc3c2)C(=O)NC2(C(=O)N[C@@H](CCCCN(C)C(C)=O)C(=O)N[C@@H](CC(N)=O)C(=O)N[C@@H](Cc3cccnc3)C(=O)N(C)CC(=O)N(C)C)CCOCC2)NC1=O` (stereo partly drawn) [compound 265, cPEG3aCO-Pen(3)-N(N(Me)2)-T-7MeW-K(NMeAc)-Pen(3)-AEF(BisPEG2a)(RS)-2Nal-THP-K(NMeAc)-N-3Pya-Sar-CON(Me)2] are 6.4 nM and 159 A^2.
